Consider four compounds from patent US8865751B2, “Thiazoles, imidazoles, and pyrazoles useful as inhibitors of protein kinases” (Vertex Pharmaceuticals Incorporated, priority 2006, dated 2014).

Like-named read-outs stand apart in the source and are kept apart here. Some results are limits rather than exact numbers.

The target in one data set is human Lck kinase (Homo sapiens, UniProt P06239). In words: Lck inhibition assay (spectrophotometric coupled-enzyme assay). Format: biochemical. On the procedure: The compounds are evaluated as inhibitors of human Lck kinase using a spectrophotometric assay.
Sequence of human Lck kinase (P06239 whole entry): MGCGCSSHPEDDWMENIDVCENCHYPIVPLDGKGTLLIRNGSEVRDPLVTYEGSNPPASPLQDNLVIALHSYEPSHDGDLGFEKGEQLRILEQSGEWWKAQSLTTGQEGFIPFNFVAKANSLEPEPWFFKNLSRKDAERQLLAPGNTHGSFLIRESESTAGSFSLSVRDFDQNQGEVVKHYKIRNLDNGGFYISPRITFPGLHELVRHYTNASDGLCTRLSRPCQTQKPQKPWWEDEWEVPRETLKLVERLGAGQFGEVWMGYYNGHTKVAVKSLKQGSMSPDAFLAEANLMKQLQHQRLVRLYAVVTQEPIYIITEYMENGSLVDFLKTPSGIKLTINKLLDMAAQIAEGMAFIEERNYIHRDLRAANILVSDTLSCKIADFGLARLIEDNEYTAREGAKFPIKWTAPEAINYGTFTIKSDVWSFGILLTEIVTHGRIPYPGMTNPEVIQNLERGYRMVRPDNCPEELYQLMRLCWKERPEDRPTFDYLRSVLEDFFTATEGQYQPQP
An assay buffer solution was prepared which consisted of 25 mM HEPES (pH 7.5), 10 mM MgCl2, 250 μM NADH, 3 mM phosphoenolpyruvate, 43 μg/mL pyruvate kinase, 14 μg/mL lactate dehydrogenase, 560 μM ATP and 67 nM Lck. To 60 μL of this solution, in a 96 well plate, was added 2 μL of test compound stock solution in DMSO and the mixture allowed to equilibrate for 10 minutes at 30° C. The enzyme reaction was initiated by the addition of 5 μL 15 mg/mL poly Glu, Tyr (4:1) prepared in 25 mM HEPES (pH 7.5). Final assay concentrations of Lck and ATP are 60 nM and 500 μM respectively. Initial rate data was determined from the rate of change of absorbance at 340 nm (corresponding to stoichiometric consumption of NADH) using a Molecular Devices Spectramax plate reader (Sunnyvale, Calif.) over 10 min at 30° C. For each Ki determination 8 data points covering the test compound concentration range of 0-7.5 μM are obtained in duplicate. Ki values are calculated from initial rate data by non-linear regression using the Prism software package (Prism 4.0a, Graphpad Software, San Diego, Calif.).

A further data set has as its target human Src kinase (Homo sapiens, UniProt P12931). In words: Src inhibition assay (spectrophotometric coupled-enzyme assay). The data set is classed as biochemical. The following applies: 25 nM Src, 100 μM ATP, poly Glu,Tyr (4:1), 30° C. As for the experimental part: The compounds are evaluated as inhibitors of human Src kinase using a spectrophotometric assay.
An assay buffer solution was prepared which consisted of 25 mM HEPES (pH 7.5), 10 mM MgCl2, 250 μM NADH, 3 mM phosphoenolpyruvate, 60 μg/mL pyruvate kinase, 21 μg/mL lactate dehydrogenase, 113 μM ATP and 28 nM Src. To 60 μL of this solution, in a 96 well plate, was added 2 μL of test compound stock solution in DMSO and the mixture allowed to equilibrate for 10 mins at 30° C. The enzyme reaction was initiated by the addition of 5 μL 10 mg/mL poly Glu, Tyr (4:1) prepared in 25 mM HEPES (pH 7.5). Final assay concentrations of Src and ATP were 25 nM and 100 μM respectively. Initial rate data was determined from the rate of change of absorbance at 340 nm (corresponding to stoichiometric consumption of NADH) using a Molecular Devices Spectramax plate reader (Sunnyvale, Calif.) over 10 mins at 30° C. For each Ki determination 8 data points covering the test compound concentration range of 0-7.5 μM were obtained in duplicate. Ki values were calculated from initial rate data by non-linear regression using the Prism software package (Prism 4.0a, Graphpad Software, San Diego, Calif.).

Data set [1] can be described thus: Solubility under the Lck assay conditions. The following applies: Lck assay buffer conditions. Format: physicochemical.
Setting [2] is: 60 nM Lck, 500 μM ATP, poly Glu,Tyr (4:1), 30° C., read-out: Ki value, inhibition of Lck.

The Ki is the equilibrium dissociation constant of an inhibitor or competing ligand from its target.

Sequence of human Src kinase (P12931 whole entry): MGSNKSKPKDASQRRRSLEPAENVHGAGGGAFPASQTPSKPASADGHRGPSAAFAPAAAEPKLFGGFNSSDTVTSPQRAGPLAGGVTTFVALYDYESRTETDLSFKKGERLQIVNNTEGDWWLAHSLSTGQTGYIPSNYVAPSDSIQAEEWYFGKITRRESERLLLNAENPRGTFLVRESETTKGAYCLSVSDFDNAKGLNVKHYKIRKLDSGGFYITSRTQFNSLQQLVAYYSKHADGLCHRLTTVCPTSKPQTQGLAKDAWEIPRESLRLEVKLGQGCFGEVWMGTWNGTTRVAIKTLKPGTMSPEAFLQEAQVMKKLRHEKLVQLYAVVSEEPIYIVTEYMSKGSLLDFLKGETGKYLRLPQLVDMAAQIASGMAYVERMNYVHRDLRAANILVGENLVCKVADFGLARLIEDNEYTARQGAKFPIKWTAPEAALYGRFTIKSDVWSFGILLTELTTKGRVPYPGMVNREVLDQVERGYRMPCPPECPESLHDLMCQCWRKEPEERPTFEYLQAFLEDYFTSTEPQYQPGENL

As to `NC(=O)c1[nH]c(C2CCCC2)nc1-c1ccc(Oc2ccccc2)cc1` [Compound I-1], the Ki was less than 100 nM at human Lck kinase (setting [2]) and 100 to 500 nM at human Src kinase.
Regarding `NC(=O)c1cn(C2CCCC2)nc1-c1ccc(Oc2ccccc2)cc1` [Compound I-2, 1-Cyclopentyl-3-(4-phenoxyphenyl)-1H-pyrazole-4-carboxamide], the Ki is 100 to 500 nM at human Lck kinase (setting [2]) and more than 1000 nM at human Src kinase.
As to `NC(=O)c1sc(C2CCCC2)nc1-c1ccc(Oc2ccccc2)cc1` [Compound I-3, 2-Cyclopentyl-4-(4-phenoxyphenyl)thiazole-5-carboxamide], the Ki is 100 to 500 nM at human Lck kinase (setting [2]) and more than 1000 nM on human Src kinase.
Take `NC(=O)c1sc(C2CCCCC2)nc1-c1ccc(Oc2ccccc2)cc1` [Compound I-4]: the inhibition constant Ki at human Lck kinase (read-out: Ki value, inhibition of Lck (expected)) is less than 1000 nM; at human Src kinase, more than 1000 nM. The “solubility under the assay conditions” value in data set [1] is recorded as “relatively low”.
